Reference: EP1861713B1, “METHOD OF SCREENING PET TRACERS FOR EARLY CANCER THEREAPY MONITORING” (GE Healthcare Limited, priority 2005, dated 2006)
pIC50: −log10 of the molar value. “Also recorded” adds a separate entry of the source. Where two headings read alike, the source gives them in different places.

Key:
[1] = test system: MCF-7 human breast cancer line; assay: PET tracer uptake in multicellular tumor spheroids (MTS) after anticancer treatment; format: cell-based; conditions: MCF-7 MTSs; 1 and 10µM; 3 and 5 days of treatment; normalized to control
Procedure: Cells of the MCF-7 human breast cancer line (European Collection of Cell Culture) were grown in MEM/EBSS supplemented with 10% FCS, 1mM sodium pyruvate, 2mM L-glutamine, 1% non-essential amino acid and 5% penicillin (Tamro).
After 1 h the medium was renewed.
In each experimental set-up four MTSs in one 24-well plate were referred to as one group. The groups included control (without treatment agent) and five different treatments with same concentration.
The response to each anticancer treatment was evaluated by measurement of the tracer uptake and total volume of the MTSs after 3 and 5 days of treatment.
Images of MTSs were recorded using a Nikon Colorpix 4500 camera mounted on an inverted Zeiss microscope before Tracer incubation. The acquired data were analyzed by SASDM.
To monitor the effect of each anti-cancer treatment five established PET-tracers; [1-^11C]Acetate, [^11C]Choline, [^11C]Methionine, [^18F]3'-Deoxy-3'-fluorthymifine and 2-[^18F]Fluor-2-deoxyglucose were utilized.
The aggregates were incubated for 30 min (for ^18F-labled tracers) and 50 min (for ^11C-labled tracers) at 37°C with 0.5 ml medium per well containing 3MBq Tracer, and then washed 3x5 min (for ^18F-labled tracers) and 3x3 min (for ^11C-labled tracers) with medium (1 ml/well).
The Tracer-uptake in MTS was defined as: Total uptake = (Act conc.(Bq/ml)of MTS)/(Act conc.(Bq/ml)of reference) [formula]
Each experiment set-up was repeated three times.

[2] = test system: MTSs of MCF-7 cell line; assay: Basic [18F]FDG uptake experiments in MTS (competition, inhibition, insulin); format: cell-based, human
Procedure: (§1) • a. Cells of the MCF-7 human breast cancer line (European Collection of Cell Culture) were grown in MEM/EBSS supplemented with 10% FCS, 1mM sodium pyruvate, 2mM L-glutamine, 1% non-essential amino acid and 5% penicillin (Tamro). […] Cells of the BT474 human breast cancer line (American Type Culture Collection) were grown in DMEM supplemented with 10% FCS, 1mM sodium pyruvate, and 5% penicillin (Tamro).
(§2) The MTSs were incubated for 50 min at 37°C with 0.5 ml medium per well containing 3MBq [^18F]FDG[21], and then washed 3x5 min with medium (1 ml/well).
To ensure the physiological validity of [^18F]FDG uptake in MTS, a number of basic experiments were performed: • Temperature dependence of [^18F]FDG uptake. The [^18F]FDG uptake experiments were performed with two different incubation temperatures: 4°C and 37°C. • Competition Experiment. Glucose concentration in the growing culture medium was 5 mM. To perform the competition experiment, unlabeled extra glucose was diluted in the growing culture medium with a concentration of 0mM (for the control group), 5mM, 10mM and 20mM. Culture medium was replaced by glucose/[^18F]FDG-containing culture medium. After 50 min incubation the [^18F]FDG uptake was measured. • Inhibition Experiment. The MTSs were pre-incubated with four different concentrations of an inhibitor of glucose transport, Cytochalasin-B; 0µM (for control group), 10µM, 25µM and 50µM followed by 50 min [^18F]FDG incubation. • Insulin-mediated [^18F]FDG uptake. The MTSs were pre-incubated with or without (control group) 10µM insulin followed by 50 min [^18F]FDG incubation.
It is noticeable that the basic experiments were performed only on MTSs of MCF-7 cell line. In each experimental set-up six MTSs in one 24-well plate were referred to as one group and the experiments were repeated three times.

[3] = test system: MCF-7 human breast cancer line; assay: [18F]FDG uptake per viable volume of MTS after anticancer treatment (MCF-7); format: cell-based; conditions: MCF-7 MTSs; for [^18F]FDG uptake per viable volume: highest dose of 1 µM
Procedure: as §1, §2
For the MCF-7 cell line, each group included 6 replicates and the experiments were repeated twice.
The response to each anticancer treatment was evaluated by measurement of the [^18F]FDG uptake and viable volume of the MTSs after 2 and 3 days of treatment.

[4] = test system: BT474 human breast cancer line; assay: [18F]FDG uptake per viable volume of MTS after anticancer treatment (BT474); conditions: BT474 MTSs

With `Cc1ccc(NC(=O)c2ccc(CN3CCN(C)CC3)cc2)cc1Nc1nccc(-c2cccnc2)n1` [Imatinib] the CHO-uptake [1] was “decrease” and the FLT-uptake [1] was “increase”.

With `C=C1[C@@H](C)[C@H]2[C@H](Cc3ccccc3)NC(=O)[C@]23OC(=O)/C=C/[C@H](O)CCC[C@@H](C)C/C=C/[C@H]3[C@@H]1O` [Cytochalasin B] the “[^18F]FDG uptake” value ([2]; glucose-transport inhibitor added to incubation medium, 10-50µM) was “significantly decreased” and the pIC50 ([2]; pre-incubation 0, 10, 25, 50µM, then 50 min [18F]FDG incubation, read-out: 50% inhibition of [^18F]FDG uptake) was 4.92.

`COc1cccc2c1C(=O)c1c(O)c3c(c(O)c1C2=O)C[C@@](O)(C(=O)CO)C[C@@H]3O[C@H]1C[C@H](N)[C@H](O)[C@H](C)O1` [Doxorubicin] was tested, and the “reduction of [^18F]FDG uptake per viable volume” value ([3]; at the highest dose) was 25%, the “[^18F]FDG uptake per viable volume” value [3] was “decreased” and the “[^18F]FDG uptake per viable volume” value ([4]; at the highest dose) was “reduced; also recorded: decreased”. The ACE-uptake [1] was “less decrease”, the FDG-uptake [1] was “less decrease” and the FLT-uptake [1] was “considerable FLT-reduction; also recorded: decreased”.

`CC(=O)O[C@@]12CO[C@@H]1C[C@H](O)[C@@]1(C)C(=O)[C@H](O)C3=C(C)[C@@H](OC(=O)[C@H](O)[C@@H](NC(=O)OC(C)(C)C)c4ccccc4)C[C@@](O)([C@@H](OC(=O)c4ccccc4)[C@H]21)C3(C)C` [Docetaxel] was tested, and the CHO-uptake [1] was “increase”, the FLT-uptake [1] was “decreased” and the MET-uptake [1] was “increase”.

With `CC/C(=C(\c1ccccc1)c1ccc(OCCN(C)C)cc1)c1ccccc1` [Tamoxifen] the “[^18F]FDG uptake per viable volume” value [3] was “reduced”, the ACE-uptake [1] was “increase” and the FLT-uptake [1] was “decreased”. The MET-uptake [1] was “decrease”.

`CC(=O)O[C@H]1C(=O)[C@@]2(C)[C@H]([C@H](OC(=O)c3ccccc3)[C@]3(O)C[C@H](OC(=O)[C@H](O)[C@@H](NC(=O)c4ccccc4)c4ccccc4)C(C)=C1C3(C)C)[C@]1(OC(C)=O)CO[C@@H]1C[C@@H]2O` [Paclitaxel] was tested, and the “[^18F]FDG uptake per viable volume (glucose transport)” value ([3]; 10nM, 100nM, 1µM, 2 and 3 days, overall) was “more moderate”, the “glucose transport per viable volume” value ([4]; lowest dose and shorter treatment time) was “reduced” and the ACE-uptake [1] was “approximately as non-treated MTSs”. For the same compound, the FDG-uptake [1] was “approximately as non-treated MTSs” and the FLT-uptake [1] was “significant decrease; also recorded: decreased”.

With `OC[C@H]1OC(O)[C@H](O)[C@@H](O)[C@@H]1O` (stereo partly drawn) [glucose] the pIC50 ([2]; Homo sapiens, MCF7, 50 min, unlabeled extra glucose 0, 5, 10, 20mM added to medium (5 mM glucose), 50 min incubation, read-out: concentration inducing a 50% reduction of [^18F]FDG uptake compared to control) was 2.00 and the “[^18F]FDG uptake in MTSs” value ([2]; increasing concentration of glucose added to incubation medium) was “gradually decreased”.
